PubChem BioAssay (NCI)
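Where inhibition never reached the appropriate level, the endpoint shown equals the highest concentration tested. Otherwise, values were interpolated linearly from a five-concentration, 48-hour dose response in 96-well plates. TGI: concentration producing complete growth inhibition.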

Experiments:
Assay in all cases: NCI anticancer screen, dose series, 48 h
HCT-15 colon = test system: HCT-15 colon
MALME-3M melanoma = test system: MALME-3M melanoma
CCRF-CEM leukemia = test system: CCRF-CEM leukemia
HCC-2998 colon = test system: HCC-2998 colon
MDA-MB-231 breast = test system: MDA-MB-231 breast
K-562 leukemia = test system: K-562 leukemia
SN12C renal = test system: SN12C renal
SW-620 colon = test system: SW-620 colon
HOP-92 NSCLC = test system: HOP-92 NSCLC
SR leukemia = test system: SR leukemia
EKVX NSCLC = test system: EKVX NSCLC
MDA-N = test system: MDA-N
T-47D breast = test system: T-47D breast
SK-MEL-28 melanoma = test system: SK-MEL-28 melanoma
SNB-19 CNS = test system: SNB-19 CNS
A549 NSCLC = test system: A549 NSCLC
HOP-62 NSCLC = test system: HOP-62 NSCLC
NCI/ADR-RES ovarian = test system: NCI/ADR-RES ovarian
MDA-MB-435 = test system: MDA-MB-435
KM12 colon = test system: KM12 colon
SNB-75 CNS = test system: SNB-75 CNS
HS 578T breast = test system: HS 578T breast
NCI-H460 lung = test system: NCI-H460 lung
U251 CNS = test system: U251 CNS
UO-31 renal = test system: UO-31 renal
OVCAR-8 ovarian = test system: OVCAR-8 ovarian
HCT-116 colon = test system: HCT-116 colon
UACC-257 melanoma = test system: UACC-257 melanoma
SK-OV-3 ovarian = test system: SK-OV-3 ovarian
A498 renal = test system: A498 renal
SF-268 CNS = test system: SF-268 CNS
PC-3 prostate = test system: PC-3 prostate
UACC-62 melanoma = test system: UACC-62 melanoma
IGROV1 ovarian = test system: IGROV1 ovarian
HT29 colon = test system: HT29 colon
OVCAR-5 ovarian = test system: OVCAR-5 ovarian
RPMI-8226 leukemia = test system: RPMI-8226 leukemia
MCF7 breast = test system: MCF7 breast
786-0 renal = test system: 786-0 renal
NCI-H23 lung = test system: NCI-H23 lung
SK-MEL-2 melanoma = test system: SK-MEL-2 melanoma
NCI-H226 lung = test system: NCI-H226 lung
COLO 205 colon = test system: COLO 205 colon
SF-295 CNS = test system: SF-295 CNS
SK-MEL-5 melanoma = test system: SK-MEL-5 melanoma
ACHN renal = test system: ACHN renal
OVCAR-4 ovarian = test system: OVCAR-4 ovarian
MOLT-4 leukemia = test system: MOLT-4 leukemia
TK-10 renal = test system: TK-10 renal
NCI-H522 lung = test system: NCI-H522 lung
BT-549 breast = test system: BT-549 breast
M14 melanoma = test system: M14 melanoma
HL-60(TB) leukemia = test system: HL-60(TB) leukemia
OVCAR-3 ovarian = test system: OVCAR-3 ovarian
DU-145 prostate = test system: DU-145 prostate
SF-539 CNS = test system: SF-539 CNS
LOX IMVI melanoma = test system: LOX IMVI melanoma
RXF 393 renal = test system: RXF 393 renal
CAKI-1 renal = test system: CAKI-1 renal

For `COc1ccc(/C=N/n2c(-c3ccccc3)n[nH]c2=O)c(OC)c1`, the TGI (HCT-15 colon) was over 100 µM, the TGI (MALME-3M melanoma) was over 100 µM and the TGI (CCRF-CEM leukemia) was over 100 µM. For the same molecule, the TGI (HCC-2998 colon) was over 100 µM, the TGI (MDA-MB-231 breast) was over 100 µM and the TGI (K-562 leukemia) was over 100 µM. The TGI (SN12C renal) was over 100 µM, the TGI (SW-620 colon) was over 100 µM and the TGI (HOP-92 NSCLC) was over 100 µM. It also gave a TGI (SR leukemia) of over 100 µM, a TGI (EKVX NSCLC) of over 100 µM and a TGI (MDA-N) of over 100 µM. For the same molecule, the TGI (T-47D breast) was over 100 µM, the TGI (SK-MEL-28 melanoma) was over 100 µM and the TGI (SNB-19 CNS) was 50.1 µM. For the same molecule, the TGI (A549 NSCLC) was over 100 µM, the TGI (HOP-62 NSCLC) was over 68.3 µM and the TGI (NCI/ADR-RES ovarian) was over 73.9 µM. It also gave a TGI (MDA-MB-435) of over 100 µM, a TGI (KM12 colon) of over 100 µM and a TGI (SNB-75 CNS) of over 73.2 µM. It also gave a TGI (HS 578T breast) of 80 µM, a TGI (NCI-H460 lung) of over 100 µM and a TGI (U251 CNS) of over 100 µM. It also gave a TGI (UO-31 renal) of over 70 µM, a TGI (OVCAR-8 ovarian) of over 87.6 µM and a TGI (HCT-116 colon) of over 100 µM. The TGI (UACC-257 melanoma) was over 100 µM, the TGI (SK-OV-3 ovarian) was over 74.6 µM and the TGI (A498 renal) was over 73.4 µM. It also gave a TGI (SF-268 CNS) of 71.9 µM, a TGI (PC-3 prostate) of over 100 µM and a TGI (UACC-62 melanoma) of over 100 µM. For the same molecule, the TGI (IGROV1 ovarian) was over 100 µM, the TGI (HT29 colon) was 76.3 µM and the TGI (OVCAR-5 ovarian) was over 100 µM. The TGI (RPMI-8226 leukemia) was over 100 µM, the TGI (MCF7 breast) was over 100 µM and the TGI (786-0 renal) was over 100 µM. It also gave a TGI (NCI-H23 lung) of over 100 µM, a TGI (SK-MEL-2 melanoma) of over 100 µM and a TGI (NCI-H226 lung) of over 100 µM. The TGI (COLO 205 colon) was over 100 µM, the TGI (SF-295 CNS) was over 100 µM and the TGI (SK-MEL-5 melanoma) was over 100 µM. For the same molecule, the TGI (ACHN renal) was over 75.5 µM, the TGI (OVCAR-4 ovarian) was over 86.6 µM and the TGI (MOLT-4 leukemia) was over 100 µM. The TGI (TK-10 renal) was over 71.5 µM, the TGI (NCI-H522 lung) was over 74.3 µM and the TGI (BT-549 breast) was over 44.6 µM. It also gave a TGI (M14 melanoma) of over 100 µM, a TGI (HL-60(TB) leukemia) of over 100 µM and a TGI (OVCAR-3 ovarian) of over 100 µM. It also gave a TGI (DU-145 prostate) of over 100 µM, a TGI (SF-539 CNS) of over 84.9 µM and a TGI (LOX IMVI melanoma) of over 100 µM. For the same molecule, the TGI (RXF 393 renal) was over 93.4 µM and the TGI (CAKI-1 renal) was over 100 µM.
Work on `C[N+]1(CC[N+]2(C)CCCC2c2cccnc2)CCCC1c1cccnc1` (stereo not given) yielded a TGI (HCT-15 colon) of over 100 µM, a TGI (MALME-3M melanoma) of over 100 µM and a TGI (HCC-2998 colon) of over 100 µM. The TGI (MDA-MB-231 breast) was over 100 µM, the TGI (K-562 leukemia) was over 100 µM and the TGI (SN12C renal) was over 100 µM. For the same molecule, the TGI (SW-620 colon) was over 100 µM, the TGI (HOP-92 NSCLC) was over 100 µM and the TGI (SR leukemia) was over 100 µM. The TGI (EKVX NSCLC) was 86.9 µM, the TGI (MDA-N) was over 100 µM and the TGI (T-47D breast) was over 100 µM. For the same molecule, the TGI (SK-MEL-28 melanoma) was over 100 µM, the TGI (SNB-19 CNS) was over 100 µM and the TGI (A549 NSCLC) was over 100 µM. For the same molecule, the TGI (HOP-62 NSCLC) was over 100 µM, the TGI (NCI/ADR-RES ovarian) was over 100 µM and the TGI (MDA-MB-435) was over 100 µM. For the same molecule, the TGI (KM12 colon) was over 100 µM, the TGI (SNB-75 CNS) was over 100 µM and the TGI (HS 578T breast) was over 100 µM. The TGI (NCI-H460 lung) was over 100 µM, the TGI (U251 CNS) was over 100 µM and the TGI (UO-31 renal) was over 100 µM. For the same molecule, the TGI (OVCAR-8 ovarian) was over 100 µM, the TGI (HCT-116 colon) was over 100 µM and the TGI (UACC-257 melanoma) was over 100 µM. It also gave a TGI (SK-OV-3 ovarian) of over 100 µM, a TGI (A498 renal) of over 100 µM and a TGI (SF-268 CNS) of over 100 µM. It also gave a TGI (PC-3 prostate) of over 100 µM, a TGI (UACC-62 melanoma) of over 100 µM and a TGI (IGROV1 ovarian) of over 100 µM. For the same molecule, the TGI (HT29 colon) was over 100 µM, the TGI (OVCAR-5 ovarian) was over 100 µM and the TGI (RPMI-8226 leukemia) was over 100 µM. For the same molecule, the TGI (MCF7 breast) was over 100 µM, the TGI (786-0 renal) was 90.7 µM and the TGI (NCI-H23 lung) was over 100 µM. It also gave a TGI (SK-MEL-2 melanoma) of over 100 µM, a TGI (COLO 205 colon) of over 100 µM and a TGI (SF-295 CNS) of over 100 µM. The TGI (SK-MEL-5 melanoma) was over 100 µM, the TGI (ACHN renal) was over 100 µM and the TGI (OVCAR-4 ovarian) was over 100 µM. The TGI (MOLT-4 leukemia) was over 100 µM, the TGI (TK-10 renal) was over 100 µM and the TGI (NCI-H522 lung) was over 100 µM. It also gave a TGI (BT-549 breast) of over 100 µM, a TGI (M14 melanoma) of over 100 µM and a TGI (OVCAR-3 ovarian) of over 100 µM. For the same molecule, the TGI (DU-145 prostate) was over 100 µM, the TGI (SF-539 CNS) was over 100 µM and the TGI (LOX IMVI melanoma) was over 100 µM. For the same molecule, the TGI (RXF 393 renal) was over 100 µM and the TGI (CAKI-1 renal) was over 100 µM.
